Laboratory results published in patent US20230323279A1, “MUTANT ALGAE, METHOD OF PREPARATION AND APPLICATION THEREOF” (Reliance Industries Limited, priority 2022, published 2023).

What was measured:
Assay type in all cases: cell-based, Picochlorum
[1] = system: mutant algae (NCAR-1 and NCAR-2); test: Volumetric productivity (AFDW mg/L/day); conditions: about 2 ppm and about 5 ppm; for volumetric productivity of mutant algae as compared to wild type of the algae: FIGS. 10-12
Excerpt: The term ‘productivity’ as used herein refers to amount of product the algae can produce under defined conditions. Productivity can be measured in grams of dry weight of algae. Alternatively, productivity can be measured in terms of the rate of production of a desirable product or product(s) such as lipid, protein, carbohydrate and/or any other biomolecule produced by the algae. The term ‘volumetric productivity’ refers to increase in biomass weight of algae/L/day.
Thus, clearly establishing that the mutant algae is resistant to salicylanilide based drug, such as Niclosamide as compared to wild type of the algae.

[2] = system: mutant algae (NCAR-1 and NCAR-2); test: Growth of algae culture (OD at 750 nm); conditions: for growth of mutant algae as compared to wild type of the algae: about 2 ppm and about 5 ppm, FIGS. 7-9
Excerpt: (§1) FIG. 4 A) illustrates a plot describing comparative growth of wild type of the algae and mutant algae (NCAR-1 and NCAR-2) at different concentrations of Niclosamide; and B) depicts an image of cultures showing no growth of wild type algae (WT) and growth of mutant algae (NCAR-1 and NCAR-2) at 10 ppm of Niclosamide, respectively.

[3] = system: wild type of the algae (WT); test: Growth of algae culture (OD at 750 nm)
Excerpt: FIG. 1 A) illustrates a plot describing no growth of wild type of the algae (WT) in presence of Niclosamide (OD at 750 nm); and B) depicts an image of cultures showing no growth of wild type algae in presence of Niclosamide.
as §1

[4] = system: mutant algae (NCAR-1 and NCAR-2); test: Photosynthetic efficiency/health; conditions: about 1 ppm, about 2 ppm and about 5 ppm, FIG. 6
Excerpt: FIG. 6 illustrate plots describing photosynthetic efficiency/health of- A) wild type of the algae (WT); B) mutant algae (NCAR-1); and C) mutant algae (NCAR-2) at different concentrations of Niclosamide (last day is 7th Day).
The improved photosynthetic efficiency of the mutant algae explicitly implies resistance of the mutant algae to salicylanilide based drug, such as Niclosamide and that the wild type of the algae is not resistant to the salicylanilide based drug.

mutant algae NCAR-2 = test: Total intracellular ATP, bioluminescence (luciferase) assay
Method: (§2) Total intracellular ATP levels in wild type algae and the mutant algae were measured using molecular probes bioluminescence assay kit. The assay is based on luciferase’s requirement for ATP in producing light (emission maximum of about 560 nm at pH 7.8) from the reaction
(§3) Niclosamide was added to mid log cells (OD750 at about 0.3) of both wild type algae and mutant algae and samples (OD = 10^8 cells) were collected after about 12 hours for ATP measurement. About 1 ppm of Oligomycin A (inhibitor of ATP synthase) was used as positive control to inhibit ATP synthesis. intracellular ATP concentration in mutant algae and wild type of the algae in presence of Niclosamide was described in Table 3.

wild type algae (WT) = test: as above; conditions: about 12 hours; for ATP conc. / bioluminescence reading, Average / bioluminescence reading, replicate 1 / bioluminescence reading, replicate 2: 1 ppm drug; for ATP depletion / lower ATP levels: about 1 ppm drug
Method: as §2, §3

mutant algae NCAR-1 = test: as above
Method: as §2, §3

WT cells = test: Killing of WT cells on EMS exposure (mutagenesis); conditions: 0.6 M, about 1 hours, about 1 × 10^8 /ml cells
Method: About 1 × 10^8 /ml WT cells were treated with 0.6 M EMS for about 1 hours. […] The alive cells were allowed to recover in dark overnight and then in low light for about a week. Upon recovering the mutant algae population was exposed to about 0.5 ppm of Niclosamide and enriched in presence of Niclosamide for several generations. As the growth rate in the presence of Niclosamide increased, the selection pressure was increased to about 1 ppm and then to about 2 ppm of Niclosamide, respectively. The mutant pool was grown in presence of about 2 ppm Niclosamide (for about 300 generations, about 1 year) till the growth rates became constant. At this stage, FACS sorting of the Niclosamide resistant mutant pool was performed to get individual Niclosamide resistant mutant algae. About 100 individual mutants were isolated and were further checked for growth in the presence of about 2 ppm Niclosamide. The list was narrowed down to about 10 stable mutants after about 2 rounds of growth screening. Finally, after about 10 rounds of repeated growth screening in the presence of about 2 ppm Niclosamide, stable mutant algae (NCAR-1 & NCAR-2) were selected, based on the stable drug resistant phenotype and consistent growth & productivity.

[5] = NCAR-2, 1 ppm drug, about 12 hours
[6] = NCAR-1, 1 ppm drug, about 12 hours

Structure (SMILES) | volumetric productivity of mutant algae as compared to wild type of the algae [1] | growth of mutant algae as compared to wild type of the algae [2] | ATP conc. (wild type algae (WT)) | bioluminescence reading, Average (wild type algae (WT)) | bioluminescence reading, replicate 1 (wild type algae (WT)) | bioluminescence reading, replicate 2 (wild type algae (WT)) | ATP depletion / lower ATP levels (wild type algae (WT)) | other results
O=C(Nc1cc(Cl)cc(Cl)c1O)c1c(O)c(Cl)cc(Cl)c1Cl [Oxyclozanide, oxyclozanide] | improved volumetric productivity | improved growth | – | – | – | – | – | –
Cc1cc(C(C#N)c2ccc(Cl)cc2)c(Cl)cc1NC(=O)c1cc(I)cc(I)c1O (stereo not shown) [Closantel, closantel] | improved volumetric productivity | improved growth | – | – | – | – | – | –
O=C(Nc1ccc(Oc2ccc(Cl)cc2)c(Cl)c1)c1cc(I)cc(I)c1O [Rafoxanide, rafoxanide] | improved volumetric productivity | improved growth | – | – | – | – | – | –
O=C(Nc1ccc([N+](=O)[O-])cc1Cl)c1cc(Cl)ccc1O [Niclosamide, niclosamide] | improved volumetric productivity | improved growth | ~ 28.80 nM | 174.5 | 204 | 145 | about 90% | volumetric productivity of mutant algae ([1]; about 1 ppm, FIG. 5): equal to or greater than the volumetric productivity of the wild type of the algae in absence of Niclosamide; growth of wild type of the algae ([3]; 10 ppm, FIG. 4B): no growth; growth of wild type of the algae (OD at 750 nm) ([3]; in presence of drug, FIG. 1): no growth; photosynthetic efficiency/health of mutant algae as compared to wild type of the algae [4]: improved photosynthetic efficiency/health; ATP conc. (mutant algae NCAR-2; [5]): 138.55 nM; bioluminescence reading, Average (mutant algae NCAR-2; [5]): 839.5; bioluminescence reading, replicate 1 (mutant algae NCAR-2; [5]): 890; bioluminescence reading, replicate 2 (mutant algae NCAR-2; [5]): 789; ATP depletion (mutant algae NCAR-2; NCAR-2, after about 12 hours of drug addition): about 50%; ATP conc. (mutant algae NCAR-1; [6]): 125.68 nM; bioluminescence reading, Average (mutant algae NCAR-1; [6]): 761.5; bioluminescence reading, replicate 1 (mutant algae NCAR-1; [6]): 835; bioluminescence reading, replicate 2 (mutant algae NCAR-1; [6]): 688; ATP depletion (mutant algae NCAR-1; NCAR-1, after about 12 hours of drug addition): about 50%; growth of mutant algae ([2]; 10 ppm, FIG. 4B): evident growth
CCOS(C)(=O)=O [EMS, ethyl methanesulfonate] | – | – | – | – | – | – | – | killing of the WT cells (WT cells): about 50%
CC[C@H]1/C=C/C=C/C[C@@H](C)[C@H](O)[C@@](C)(O)C(=O)[C@@H](C)[C@H](O)[C@@H](C)C(=O)[C@@H](C)[C@H](O)[C@@H](C)/C=C/C(=O)O[C@@H]2[C@H](C)[C@H](CC1)O[C@]1(CC[C@H](C)[C@H](C[C@@H](C)O)O1)[C@H]2C [Oligomycin, Oligomycin A] | – | – | 178.49 nM | 1081.5 | 1181 | 982 | about 40% | –
